Reference: patent US9067896B2, “Crystalline forms of 3-(2,6-dichloro-3,5-dimethoxy-phenyl)-1-{6-[4-(4-ethyl-piperazin-1-yl) -phenylamino]-pyrimidin-4-yl}-1-methyl-urea and salts thereof” (Novartis AG, priority 2009, dated 2015)
≈ marks a conversion by molar mass, not a printed value. Where a name gives a salt, the structure may show the parent alone. Each block holds one molecule with its values, some of them ahead of it.

Tests used:
[1] = Determination of solubility (equilibration in solvent, filtrate by HPLC); assay type: physicochemical
Procedure: Excess free base (free base of Formula I), its phosphate salt (the monophosphoric acid salt of the free base), or another acid salt was equilibrated in solvents for 1 day at 25±0.5° C. The resultant slurry was filtered and the filtrate used for solubility determination by HPLC.
Solubility of the monohydrate of the anhydrous and monohydrate free base was measured in various aqueous media (e.g., pH 6.8 buffer, pH 4.5 buffer, pH 1 buffer), including simulated and actual human fluids.
The human fluids were collected from 12 human subjects.
Solubility studies of the phosphate salt were undertaken in aqueous media and in human fluids at 24 hours.

[2] = Hygroscopicity from DVS sorption/desorption isotherms; assay type: physicochemical
Procedure: Hygroscopicity was measured from sorption/desorption isotherms using Surface Measurement System DVS-1 at 25±0.5° C. Samples were evaluated at various humidities including 75%, 85%, and 95%.
The free base (anhydrous and monohydrate) and its phosphate salt (form A) were subjected to sorption and desorption cycle using a VTI brand instrument. The solids were collected after the experiment and analyzed. […] The DVS plots are shown in FIGS. 4A (free base, anhydrous), 4B (phosphate salt (form A) and 4C (free base, monohydrate). The maximum water uptake for the phosphate salt (form A) was less than 2% (i.e. 0.7%) at 25° C. up to 95% relative humidity (rh) (see Table 9). The maximum water uptake for the monohydrate was less than 1.4% at 25° C. up to 95% RH. The monohydrate with an approximate water content of 3% could not be completely dried during the experiment but the water that could be removed was reversibly reabsorbed. The plateau of existence of the monohydrate form is found to be within 10% and 95% RH with a slight hysteresis at the second desorption cycle.

[3] = Relative humidity 5%, after the 95% step
[4] = Relative humidity 5%, before the 95% step
[5] = Relative humidity 25%, after the 95% step
[6] = Relative humidity 25%, before the 95% step
[7] = Relative humidity 50%, after the 95% step
[8] = Relative humidity 50%, before the 95% step
[9] = Relative humidity 75%, after the 95% step
[10] = Relative humidity 75%, before the 95% step
[11] = Relative humidity 85%, after the 95% step
[12] = Relative humidity 85%, before the 95% step

Solubility in mg/ml after 24 h ([1]; Fasted State Simulated Intestinal Fluid (FaSSIF), listed as Anhydrous Free Base): 0.001 mg/mL (≈ 1.78 µM) | Solubility in mg/ml after 24 h ([1]; Fed State Simulated Intestinal Fluid (FeSSIF), listed as Anhydrous Free Base): 0.148 mg/mL (≈ 264 µM) | Solubility in mg/ml after 24 h ([1]; HIF, fed, listed as Anhydrous Free Base): 0.004 mg/mL (≈ 7.14 µM) | Solubility in mg/ml after 24 h ([1]; Human gastric fluid (HGF), listed as Anhydrous Free Base): 0.001 mg/mL (≈ 1.78 µM) | Solubility in mg/ml after 24 h ([1]; Human intestinal fluid (HIF) fasted, listed as Anhydrous Free Base): 0.002 mg/mL (≈ 3.57 µM) | Solubility in mg/ml after 24 h ([1]; Simulated Gastric Fluid (SGF), listed as Anhydrous Free Base): 0.0497 mg/mL (≈ 88.7 µM) | solubility in common organic solvents (in words) ([1]; listed as anhydrous free base): sparingly to slightly soluble | Solubility ([1]; initial solubility test, Water): 1 µg/mL (≈ 1.78 µM) | Solubility ([1]; initial solubility test, pH3 Buffer): 200 µg/mL (≈ 357 µM) | solubility at 24 h ([1]; pH 1 HCl, 25 °C, pH 1, simulated gastric fluid, thermodynamic from solid, pH 1 HCl, read-out: Solubility in mg/ml after 24 h): 0.052 mg/mL (≈ 92.8 µM) | Solubility ([1]; pH 6.8 buffer, listed as anhydrous free base): ca. 0.00004 mg/mL | Solubility in mg/ml after 24 h ([1]; ph 4.5 Acetate, listed as Anhydrous Free Base): 0.008 mg/mL (≈ 14.3 µM) | Solubility in mg/ml after 24 h ([1]; ph 6.8 Phosphate): <LOQ* | Solubility ([1]; water (free base: pH 6.67), listed as anhydrous free base): ~0.09 µg/mL (≈ 0.161 µM) | hygroscopicity (in words) ([2]; listed as anhydrous free base): slightly hygroscopic
Compound: CCN1CCN(c2ccc(Nc3cc(N(C)C(=O)Nc4c(Cl)c(OC)cc(OC)c4Cl)ncn3)cc2)CC1 [Free Base, 3-(2,6-Dichloro-3,5-dimethoxy-phenyl)-1-{6-[4-(4-ethyl-piperazin-1-yl)-phenylamino]-pyrimidin-4-yl}-1-methyl-urea]

Solubility in mg/ml after 24 h ([1]; Fasted State Simulated Intestinal Fluid (FaSSIF), listed as Phosphate Salt): 0.003 mg/mL | Solubility in mg/ml after 24 h ([1]; Fed State Simulated Intestinal Fluid (FeSSIF), listed as Phosphate Salt): 1.067 mg/mL | Solubility in mg/ml after 24 h ([1]; HIF, fed, listed as Phosphate Salt): 0.00141 mg/mL | Solubility in mg/ml after 24 h ([1]; Human gastric fluid (HGF), listed as Phosphate Salt): 0.0115 mg/mL | Solubility in mg/ml after 24 h ([1]; Human intestinal fluid (HIF) fasted, listed as Phosphate Salt): 0.00223 mg/mL | Solubility in mg/ml after 24 h ([1]; Simulated Gastric Fluid (SGF), listed as Phosphate Salt): 0.088 mg/mL | solubility in common organic solvents (in words) [1]: sparingly soluble | Solubility ([1]; initial solubility test, Water, listed as Phosphate): 1700 µg/mL | Solubility ([1]; initial solubility test, pH3 Buffer, listed as Phosphate): 39 µg/mL | Solubility in mg/ml after 24 h ([1]; pH 1 HCl, listed as Phosphate Salt): 0.089 mg/mL | Solubility ([1]; pH 6.8 buffer): ca. 0.00009 mg/mL | Solubility in mg/ml after 24 h ([1]; ph 4.5 Acetate, listed as Phosphate Salt): 0.731 mg/mL | Solubility ([1]; water (free base: pH 6.67)): 1300 µg/mL | weight gain due to water absorption (DVS) ([2]; 75% RH, listed as phosphate salt): < 1% | weight gain due to water absorption (DVS) ([2]; 85% RH): < 1% | weight gain due to water absorption (DVS) ([2]; 95% RH, listed as phosphate salt): < 2% | Adsorption Weight Gain (%) ([2]; Relative humidity 0%): 0.000% | Desorption Weight Gain (%) ([2]; Relative humidity 0%): 0.000% | Adsorption Weight Gain (%) [2, 3]: 0.000% | Desorption Weight Gain (%) [2, 3]: 0.048% | Adsorption Weight Gain (%) [2, 4]: 0.016% | Desorption Weight Gain (%) [2, 4]: 0.091% | Adsorption Weight Gain (%) [2, 5]: 0.177% | Desorption Weight Gain (%) [2, 5]: 0.447% | Adsorption Weight Gain (%) [2, 6]: 0.165% | Desorption Weight Gain (%) [2, 6]: 0.507% | Adsorption Weight Gain (%) [2, 7]: 0.334% | Desorption Weight Gain (%) [2, 7]: 0.705% | Adsorption Weight Gain (%) [2, 8]: 0.309% | Desorption Weight Gain (%) [2, 8]: 0.738% | Adsorption Weight Gain (%) [2, 9]: 0.467% | Desorption Weight Gain (%) [2, 9]: 1.275% | Adsorption Weight Gain (%) [2, 10]: 0.437% | Desorption Weight Gain (%) [2, 10]: 1.022% | Adsorption Weight Gain (%) [2, 11]: 0.520% | Desorption Weight Gain (%) [2, 11]: 1.421% | Adsorption Weight Gain (%) [2, 12]: 0.495% | Desorption Weight Gain (%) [2, 12]: 1.245% | Adsorption Weight Gain (%) ([2]; Relative humidity 95%): 0.653% | Desorption Weight Gain (%) ([2]; Relative humidity 95%): 1.547% | hygroscopicity (in words) ([2]; listed as phosphate salt): slightly hygroscopic
Compound: CCN1CCN(c2ccc(Nc3cc(N(C)C(=O)Nc4c(Cl)c(OC)cc(OC)c4Cl)ncn3)cc2)CC1 [Phosphate salt (form A)]
